Test results from ChEMBL document CHEMBL1201862, “PubChem BioAssay data set” (2004).
Active and inactive are the calls of the source. Cut-off read from the data, not from the text of the source, for most assays here: actives have a measured EC50 and inactives only a lower limit.

Assays:
[1] = C. albicans growth with fluconazole, confirmation, fluorescence, retest (AID 2467); assay type: functional, cell-based
[2] = inhibitors of intracellular T. cruzi replication, confirmation, NIH3T3 host cells, beta-gal luminescence (AID 2044); assay type: functional, cell-based;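 note: intracellular parasites grown in NIH/3T3 mouse fibroblasts as host cells; luminescent beta-galactosidase reporter signal from transgenic T. cruzi replicating inside host cells; inhibitors lower the luminescence signal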
[3] = molecular target: Nonstructural protein 1 (Influenza A virus, UniProt Q194T2); assay type: functional, Influenza A virus (A/California/07/2009(H1N1))
[4] = test system: BJ; test: cytotoxicity toward BJ-TERT fibroblasts, dose response, cell-based, RAS-independent, luminescence (AID 1933); assay type: functional; conditions: Homo sapiens
[5] = molecular target: T1, Lysine-specific demethylase 4C (Homo sapiens, UniProt Q9H3R0); test: GASC-1 (JMJD2C) histone demethylase inhibitors, dose response, biochemical, DELFIA europium, cherry-picked samples (AID 488835); assay type: functional
T1 sequence (Q9H3R0 whole entry): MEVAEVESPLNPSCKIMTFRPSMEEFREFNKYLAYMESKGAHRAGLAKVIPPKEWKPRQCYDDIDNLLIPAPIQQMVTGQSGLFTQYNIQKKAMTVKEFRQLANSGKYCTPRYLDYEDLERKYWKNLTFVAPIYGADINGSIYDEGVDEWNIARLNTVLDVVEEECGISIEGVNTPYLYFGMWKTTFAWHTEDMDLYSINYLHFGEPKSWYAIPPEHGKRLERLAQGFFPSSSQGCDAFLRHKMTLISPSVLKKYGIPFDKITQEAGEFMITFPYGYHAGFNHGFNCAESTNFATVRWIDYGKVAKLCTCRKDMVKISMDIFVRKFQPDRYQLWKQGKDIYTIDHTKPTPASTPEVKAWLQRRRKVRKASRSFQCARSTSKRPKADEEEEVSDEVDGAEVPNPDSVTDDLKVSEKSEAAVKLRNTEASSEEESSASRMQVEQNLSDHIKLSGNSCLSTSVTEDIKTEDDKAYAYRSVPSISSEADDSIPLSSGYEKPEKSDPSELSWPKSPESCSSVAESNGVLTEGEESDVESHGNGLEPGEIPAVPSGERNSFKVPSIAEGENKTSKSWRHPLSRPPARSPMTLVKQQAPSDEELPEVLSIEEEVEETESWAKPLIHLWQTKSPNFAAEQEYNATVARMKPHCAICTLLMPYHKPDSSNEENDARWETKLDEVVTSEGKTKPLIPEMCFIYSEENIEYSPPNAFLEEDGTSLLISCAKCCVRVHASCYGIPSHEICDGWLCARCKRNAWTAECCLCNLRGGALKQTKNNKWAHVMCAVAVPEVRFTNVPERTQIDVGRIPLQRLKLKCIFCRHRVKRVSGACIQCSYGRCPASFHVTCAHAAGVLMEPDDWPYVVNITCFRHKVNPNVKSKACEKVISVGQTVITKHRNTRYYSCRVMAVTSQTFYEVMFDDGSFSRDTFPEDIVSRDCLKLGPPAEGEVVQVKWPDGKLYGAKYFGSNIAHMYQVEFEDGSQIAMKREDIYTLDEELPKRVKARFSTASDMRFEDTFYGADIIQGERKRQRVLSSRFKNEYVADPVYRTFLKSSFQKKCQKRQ

Sequence of Nonstructural protein 1 (Q194T2 whole entry): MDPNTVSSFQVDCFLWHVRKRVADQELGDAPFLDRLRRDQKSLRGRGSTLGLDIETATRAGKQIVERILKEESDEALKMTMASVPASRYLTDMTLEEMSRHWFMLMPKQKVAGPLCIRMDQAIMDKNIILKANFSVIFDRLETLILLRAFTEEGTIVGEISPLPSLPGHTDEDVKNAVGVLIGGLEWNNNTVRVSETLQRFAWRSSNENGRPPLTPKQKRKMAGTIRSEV

Row | Structure (SMILES) | EC50 [1] | EC50 [2] | IC50 [3] | EC50 [4] | AC50 [5]
1 | O=[N+]([O-])c1ccc(Sc2nc3ccccc3o2)c([N+](=O)[O-])c1 | 1.37 µM (active) | 1.27 µM (active) | 34.2 µM (active) | 3.27 µM (active) | 
2 | O=C1c2ccccc2C(=O)C12OC2c1cccc2ccccc12 (stereo not given) |  |  |  |  | 6.61 µM (active)
